Here are results for 3 compounds from US5366963A, “Gangliosides with immunosuppressive ceramide moieties” (The Regents of the University of California, priority 1993, dated 1994).

Broadly, the inhibition is the drop in the measured response relative to a control, in per cent.

Test [1] has as its system humoral or cellular immunity. The note with it: Presti et al. 1989; cited from earlier work.
The subject of test [2] is normal human peripheral blood mononuclear cells (PBMC). Briefly: cells. It counts as cell-based. Conditions: for inhibition at 5 µM / inhibition at 10 µM / inhibition at 2.5 µM: Homo sapiens, PBMC.

“And” between values parts separate entries of the source, which are not always exact repeats. Identical values can stand only once. Like-named read-outs stand apart in the source and are kept apart here. Where only a bound is given, the exact number is not on record here.

In the case of GM1 ganglioside, the “suppressive effect on humoral or cellular immunity in vivo” value in test [1] is listed as “no evidence of a suppressive effect”.
Turning to `CCCCCCCCCCCCC/C=C/[C@@H](O)[C@H](CO[C@@H]1O[C@H](CO)[C@@H](O[C@@H]2O[C@H](CO)[C@H](O[C@@H]3O[C@H](CO)[C@H](O)[C@H](O)[C@H]3NC(C)=O)[C@H](O[C@]3(C(=O)O)C[C@H](O)[C@@H](NC(C)=O)[C@H]([C@H](O)[C@H](O)CO)O3)[C@H]2O)[C@H](O)[C@H]1O)NC(=O)C(O)CCCCCCCCCCCCCCCC` (stereo partly drawn) [d18:1-hC18:0 GM2], in test [2], the “cpm (3H-thymidine uptake)” value is 16.7 cpm × 10^-3 and 11.4 cpm × 10^-3 and 12.9 cpm × 10^-3; the “immunosuppressive activity (in words)” value was “less immunosuppressive than the non-hydroxylated species”; the inhibition at 5 µM was determined as 30%; at 10 µM the inhibition was 21%. For the same compound, the inhibition at 2.5 µM in test [2] (read-out: % inhibition (NI)) was under 0%.
As for `CCCCCCCCCCCCC/C=C/[C@@H](O)[C@H](CO[C@@H]1O[C@H](CO)[C@@H](O[C@@H]2O[C@H](CO)[C@H](O[C@@H]3O[C@H](CO)[C@H](O)[C@H](O)[C@H]3NC(C)=O)[C@H](O[C@]3(C(=O)O)C[C@H](O)[C@@H](NC(C)=O)[C@H]([C@H](O)[C@H](O)CO)O3)[C@H]2O)[C@H](O)[C@H]1O)NC(=O)CCCCCCCCCCCCCCCCC` [d18:1-C18:0 GM2], in test [2], the inhibition at 5 µM is 47% and at 10 µM the inhibition was 86%. Besides, the inhibition at 2.5 µM in test [2] (read-out: % inhibition) stood at 31%.
